pEC50: −log10 of the molar value. Like-named read-outs stand apart in the source and are kept apart here. Bounds are passed on as bounds.

The test system of the experiment is NL-RLuc virus (recombinant HIV NL4-3 proviral clone with Renilla Luciferase) in MT-2 cells. Put plainly: Inhibition of HIV Replication (NL-RLuc luciferase reporter virus, MT-2 cells). The note with it: MT2, 120 h; for pEC50: read-out: Activity; for EC50: read-out: EC50 μM. The experiment is classed as cell-based. From the text: Inhibition of HIV Replication:
A recombinant NL-RLuc proviral clone was constructed in which a section of the nef gene from NL4-3 was replaced with the Renilla Luciferase gene. This virus is fully infectious and can undergo multiple cycles of replication in cell culture. In addition, the luciferous reporter provides a simple and easy method for quantitating the extent of virus growth and consequently, the antiviral activity of test compounds. The plasmid pNLRLuc contains the proviral NL-Rluc DNA cloned into pUC 18 at the PvuII site. The NL-RLuc virus was prepared by transfection of 293T cells with the plasmid pNLRLuc. Transfections were performed using the LipofectAMINE PLUS kit from Invitrogen (Carlsbad, Calif.) according to the manufacturer and the virus generated was titered in MT-2 cells. For susceptibility analyses, the titrated virus was used to infect MT-2 cells in the presence of compound, and after 5 days of incubation, cells were processed and quantitated for virus growth by the amount of expressed luciferase. Assay media was RPMI 1640 supplemented with 10% heat inactivated fetal bovine serum (FBS), 100 units/ml penicillin G/100 units/ml streptomycin, 10 mM HEPES buffer pH 7.55 and 2 mM L-glutamine. The results from at least 2 experiments were used to calculate the EC50 values. Luciferase was quantitated using the Dual Luciferase kit from Promega (Madison, Wis.). Susceptibility of viruses to compounds was determined by incubation in the presence of serial dilutions of the compound. The 50% effective concentration (EC50) was calculated by using the exponential form of the median effect equation where (Fa)=1/[1+(ED50/drug conc.)^m](Johnson V A, Byington R T. Infectivity Assay. In Techniques in HIV Research. ed. Aldovini A, Walker B D. 71-76. New York: Stockton Press. 1990). Activity equal to A refers to a compound having an EC50≤100 nM, while B and C denote compounds having an EC50 between 100 nM and 1 uM (B) or >1 uM (C).

As for `Cc1nc(C)c([C@H](OC(C)(C)C)C(=O)O)c(N2CCC(C)(C)CC2)c1-c1ccc(CN(Cc2ccc(F)cc2)C(=O)C2CC2)cc1` [Example 40, (S)-2-(tert-butoxy)-2-(4-(4,4-dimethylpiperidin-1-yl)-5-(4-((N-(4-fluorobenzyl)cyclopropanecarboxamido)methyl)phenyl)-2,6-dimethylpyridin-3-yl)acetic acid], the pEC50 is > 7.00.

As to `Cc1nc(C)c([C@H](OC(C)(C)C)C(=O)O)c(N2CCC(C)(C)CC2)c1-c1ccc(CN(Cc2ccc(F)cc2)C(=O)c2cccc(F)c2)cc1` [Example 41, (S)-2-(tert-butoxy)-2-(4-(4,4-dimethylpiperidin-1-yl)-5-(4-((3-fluoro-N-(4-fluorobenzyl)benzamido)methyl)phenyl)-2,6-dimethylpyridin-3-yl)acetic acid], the pEC50 is > 7.00 and the EC50 is 0.015 µM.

Consider `Cc1nc(C)c([C@H](OC(C)(C)C)C(=O)O)c(N2CCC(C)(C)CC2)c1-c1ccc(CN(Cc2ccc(F)cc2)C(=O)C2CCC2)cc1` [Example 42, (S)-2-(tert-butoxy)-2-(4-(4,4-dimethylpiperidin-1-yl)-5-(4-((N-(4-fluorobenzyl)cyclobutanecarboxamido)methyl)phenyl)-2,6-dimethylpyridin-3-yl)acetic acid], for which the pEC50 was > 7.00.

For the compound `Cc1ccccc1C(=O)N(Cc1ccc(F)cc1)Cc1ccc(-c2c(C)nc(C)c([C@H](OC(C)(C)C)C(=O)O)c2N2CCC(C)(C)CC2)cc1` [Example 43, (S)-2-(tert-butoxy)-2-(4-(4,4-dimethylpiperidin-1-yl)-5-(4-((N-(4-fluorobenzyl)-2-methylbenzamido)methyl)phenyl)-2,6-dimethylpyridin-3-yl)acetic acid], the pEC50 was > 7.00.

Regarding `Cc1nc(C)c([C@H](OC(C)(C)C)C(=O)O)c(N2CCC(C)(C)CC2)c1-c1ccc(CN(Cc2ccc(F)cc2)C(=O)c2cccs2)cc1` [Example 44, (S)-2-(tert-butoxy)-2-(4-(4,4-dimethylpiperidin-1-yl)-5-(4-((N-(4-fluorobenzyl)thiophene-2-carboxamido)methyl)phenyl)-2,6-dimethylpyridin-3-yl)acetic acid], the pEC50 was > 7.00.

With `COc1ccc(C(=O)N(Cc2ccc(F)cc2)Cc2ccc(-c3c(C)nc(C)c([C@H](OC(C)(C)C)C(=O)O)c3N3CCC(C)(C)CC3)cc2)cc1` [Example 45, (S)-2-(tert-butoxy)-2-(4-(4,4-dimethylpiperidin-1-yl)-5-(4-((N-(4-fluorobenzyl)-4-methoxybenzamido)methyl)phenyl)-2,6-dimethylpyridin-3-yl)acetic acid], the pEC50 is > 7.00.

Take `Cc1nc(C)c([C@H](OC(C)(C)C)C(=O)O)c(N2CCC(C)(C)CC2)c1-c1ccc(CN(Cc2ccc(F)cc2)C(=O)c2ccc(C(F)(F)F)cc2)cc1` [Example 46, (S)-2-(tert-butoxy)-2-(4-(4,4-dimethylpiperidin-1-yl)-5-(4-((N-(4-fluorobenzyl)-4-(trifluoromethyl)benzamido)methyl)phenyl)-2,6-dimethylpyridin-3-yl)acetic acid]: the pEC50 is > 7.00 and the EC50 was 0.016 µM.

`Cc1nc(C)c([C@H](OC(C)(C)C)C(=O)O)c(N2CCC(C)(C)CC2)c1-c1ccc(COc2cccc(C(F)(F)F)c2)cc1` [Example 48, (S)-2-(tert-Butoxy)-2-(4-(4,4-dimethylpiperidin-1-yl)-2,6-dimethyl-5-(4-((3-(trifluoromethyl)phenoxy)methyl)phenyl)pyridin-3-yl)acetic acid]: the pEC50 was > 7.00.

Consider `Cc1nc(C)c([C@H](OC(C)(C)C)C(=O)O)c(N2CCC(C)(C)CC2)c1-c1ccc(COC(C)(C)C)cc1` [Example 49, (S)-2-(tert-Butoxy)-2-(5-(4-(tert-butoxymethyl)phenyl)-4-(4,4-dimethylpiperidin-1-yl)-2,6-dimethylpyridin-3-yl)acetic acid], for which the pEC50 is > 7.00.

In the case of `Cc1cc(OCc2ccc(-c3c(C)nc(C)c([C@H](OC(C)(C)C)C(=O)O)c3N3CCC(C)(C)CC3)cc2)ccc1Cl` [Example 50, (S)-2-(tert-Butoxy)-2-(5-(4-((4-chloro-3-methylphenoxy)methyl)phenyl)-4-(4,4-dimethylpiperidin-1-yl)-2,6-dimethylpyridin-3-yl)acetic acid], the pEC50 is > 7.00.

For the compound `Cc1nc(C)c([C@H](OC(C)(C)C)C(=O)O)c(N2CCC(C)(C)CC2)c1-c1ccc(COCc2ccc(F)cc2)cc1` [Example 51, (S)-2-(tert-Butoxy)-2-(4-(4,4-dimethylpiperidin-1-yl)-5-(4-(((4-fluorobenzyl)oxy)methyl)phenyl)-2,6-dimethylpyridin-3-yl)acetic acid], the pEC50 was < 6.00.

On to `Cc1nc(C)c([C@H](OC(C)(C)C)C(=O)O)c(N2CCC(C)(C)CC2)c1-c1ccc(CSCc2ccc(F)cc2)cc1` [Example 52, (S)-2-(tert-Butoxy)-2-(4-(4,4-dimethylpiperidin-1-yl)-5-(4-(((4-fluorobenzyl)thio)methyl)phenyl)-2,6-dimethylpyridin-3-yl)acetic acid], for which the pEC50 is > 7.00.

For the compound `Cc1nc(C)c([C@H](OC(C)(C)C)C(=O)O)c(N2CCC(C)(C)CC2)c1-c1ccc(CN2CCc3ccccc3C2)cc1` [Example 53, (S)-2-(tert-Butoxy)-2-(5-(4-((3,4-dihydroisoquinolin-2(1H)-yl)methyl)phenyl)-4-(4,4-dimethylpiperidin-1-yl)-2,6-dimethylpyridin-3-yl)acetic acid], the pEC50 was > 7.00 and the EC50 worked out at 0.076 µM.

These data come from patent US20180170903A1, “PYRIDIN-3-YL ACETIC ACID DERIVATIVES AS INHIBITORS OF HUMAN IMMUNODEFICIENCY VIRUS REPLICATION” (ViiV HEALTHCARE UK (NO.5) LIMITED, priority 2015, published 2018).
